Laboratory results from PubChem BioAssay (NCI).
Values joined by “and” are separate entries in the source; they are usually repeats but may differ in a detail not shown here. Equal entries are not always repeated.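 1) Cells in 96-well plates. 2) Compound, 48 h, 5 concentrations. 3) Linear interpolation between surrounding doses. 4) Unreached endpoint = highest concentration. GI50 is the concentration that inhibits growth by half. Definition used: TGI = concentration required for complete inhibition of growth.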

Tests used:
Experiment in all cases: growth of human tumour cells (NCI), 48 h
[1] = test system: KM12 colon
[2] = test system: SN12C renal
[3] = test system: HS 578T breast
[4] = test system: MDA-MB-231 breast
[5] = test system: NCI-H460 lung
[6] = test system: UO-31 renal
[7] = test system: UACC-257 melanoma
[8] = test system: SK-MEL-5 melanoma
[9] = test system: OVCAR-8 ovarian
[10] = test system: SNB-19 CNS

Q: Which TGI [1] does the source give for C/C=C1\C[C@@H]2C(OC)Nc3cc(O)c(OC)cc3C(=O)N2C1 (stereo partly specified) here?
A: 0.34 µM and 0.0408 µM

Q: What about the GI50 [2] of the same compound?
A: 0.00625 µM

Q: What about the TGI [3] of the same compound?
A: 0.0575 µM and < 0.0282 µM

Q: What about the GI50 [4] of the same compound?
A: 13.1 nM

Q: What about the TGI [4] of the same compound?
A: 0.0626 µM and 0.375 µM

Q: What about the GI50 [5] of the same compound?
A: 0.00356 µM

Q: And the TGI [5]?
A: 0.598 µM and 1.53 µM

Q: And the GI50 [6]?
A: 2.22 nM

Q: And the TGI [7]?
A: 0.0413 µM and < 0.0126 µM

Q: What about the GI50 [8] of the same compound?
A: 0.00327 µM

Q: And the TGI [8]?
A: 0.00889 µM

Q: What about the GI50 [9] of the same compound?
A: 0.00804 µM

Q: What about the TGI [9] of the same compound?
A: 0.61 µM and 1.03 µM

Q: COc1cc(C2C(C(=O)OCc3ccccc3)=C(C)NC(C)=C2C(=O)OCc2ccccc2)cc(OC)c1OC was tested. Which GI50 [10] did it give?
A: 5.73 µM

Q: What about the TGI [10] of the same compound?
A: > 100 µM

Q: What about the GI50 [3] of the same compound?
A: 5.61 µM

Q: And the TGI [3]?
A: > 100 µM

Q: What about the GI50 [4] of the same compound?
A: 2160 nM

Q: And the TGI [4]?
A: > 100 µM

Q: What about the GI50 [5] of the same compound?
A: 3.54 µM

Q: And the TGI [5]?
A: > 100 µM

Q: What about the GI50 [6] of the same compound?
A: 2220 nM

Q: And the TGI [6]?
A: > 100 µM

Q: What about the GI50 [7] of the same compound?
A: 3.82 µM

Q: And the TGI [7]?
A: > 100 µM

Q: What about the GI50 [9] of the same compound?
A: 4.52 µM

Q: What about the TGI [9] of the same compound?
A: > 100 µM

Q: For O=c1nc(-c2ccccc2)scc1-c1ccccc1, which TGI [10] is on record?
A: > 100 µM

Q: What about the TGI [1] of the same compound?
A: > 100 µM

Q: And the TGI [2]?
A: > 100 µM

Q: What about the TGI [5] of the same compound?
A: > 100 µM

Q: What about the TGI [6] of the same compound?
A: > 100 µM

Q: What about the TGI [7] of the same compound?
A: > 100 µM

Q: What about the TGI [8] of the same compound?
A: > 100 µM

Q: And the TGI [9]?
A: > 100 µM

Q: How did the GI50 [10] turn out when CCCC(=O)Nc1ncnc2c1ncn2C1OC2COP(=O)(O)OC2C1OC(=O)CCC (stereo unspecified) was run?
A: > 1000 µM

Q: And the TGI [10]?
A: > 1000 µM

Q: What about the GI50 [1] of the same compound?
A: > 1000 µM

Q: And the TGI [1]?
A: > 1000 µM

Q: And the GI50 [2]?
A: > 1000 µM

Q: What about the TGI [2] of the same compound?
A: > 1000 µM

Q: And the TGI [3]?
A: > 1000 µM

Q: What about the TGI [4] of the same compound?
A: > 1000 µM

Q: What about the TGI [6] of the same compound?
A: > 1000 µM

Q: What about the GI50 [7] of the same compound?
A: > 1000 µM

Q: And the TGI [7]?
A: > 1000 µM

Q: And the GI50 [8]?
A: > 1000 µM

Q: What about the TGI [8] of the same compound?
A: > 1000 µM

Q: What about the GI50 [9] of the same compound?
A: > 1000 µM

Q: What about the TGI [9] of the same compound?
A: > 1000 µM

Q: With CCCCCCCCCCCCCC(=O)OC1C(CO)OC(=O)C1O (stereo unspecified) as the compound, how does the TGI [10] read?
A: > 100 µM

Q: And the TGI [1]?
A: > 100 µM

Q: And the TGI [2]?
A: > 100 µM

Q: What about the TGI [5] of the same compound?
A: > 100 µM

Q: What about the TGI [6] of the same compound?
A: > 100 µM

Q: What about the TGI [7] of the same compound?
A: > 100 µM

Q: What about the TGI [8] of the same compound?
A: > 100 µM

Q: What about the TGI [9] of the same compound?
A: > 100 µM

Q: With CCCCCCCCCCNC(=S)OCCCC as the compound, how does the TGI [10] read?
A: > 100 µM

Q: What about the TGI [1] of the same compound?
A: 29.9 µM

Q: And the TGI [2]?
A: 38.2 µM

Q: And the TGI [5]?
A: 43.5 µM

Q: And the TGI [6]?
A: 60.3 µM

Q: What about the TGI [7] of the same compound?
A: 49.3 µM

Q: And the TGI [8]?
A: 33.3 µM

Q: And the TGI [9]?
A: > 100 µM

Q: For CNc1ccc(C(=O)CC(O)CCC(C)C2OC(=O)CC(O)CC(=O)CC(O)CC(O)CC(O)CC(O)CC3(O)CC(O)C(C(=O)NCCc4ccccn4)C(CC(OC4OC(C)C(O)C(N)C4O)/C=C/C=C/C=C/C=C\C=C/C=C/C=C/C2C)O3)cc1 (stereo unspecified), which GI50 [10] is on record?
A: 14.8 µM

Q: And the TGI [10]?
A: > 50 µM

Q: What about the GI50 [1] of the same compound?
A: 3.6 µM

Q: And the TGI [1]?
A: > 18.9 µM

Q: What about the GI50 [2] of the same compound?
A: 0.961 µM

Q: And the TGI [2]?
A: 2.09 µM

Q: What about the GI50 [3] of the same compound?
A: 0.489 µM

Q: And the TGI [3]?
A: 2.61 µM

Q: What about the GI50 [4] of the same compound?
A: 6230 nM

Q: And the TGI [4]?
A: > 21.2 µM

Q: What about the GI50 [5] of the same compound?
A: 0.238 µM

Q: What about the TGI [5] of the same compound?
A: > 17.8 µM

Q: And the GI50 [6]?
A: 551 nM

Q: And the GI50 [8]?
A: 0.157 µM

Q: And the TGI [8]?
A: 0.447 µM

Q: What about the GI50 [9] of the same compound?
A: 0.747 µM

Q: With O=C(CC(=O)c1cccc([N+](=O)[O-])c1)C(=O)Nc1nc([N+](=O)[O-])cs1 as the compound, how does the TGI [10] read?
A: > 100 µM

Q: And the TGI [1]?
A: > 100 µM

Q: What about the TGI [2] of the same compound?
A: > 100 µM

Q: What about the TGI [5] of the same compound?
A: > 100 µM

Q: And the TGI [6]?
A: > 100 µM

Q: What about the TGI [7] of the same compound?
A: > 100 µM

Q: What about the TGI [8] of the same compound?
A: > 100 µM

Q: What about the TGI [9] of the same compound?
A: > 100 µM

Q: Which results are given for O=C1C(Cl)=C(Nc2cccc(O)c2)C(=O)N1c1ccc(Cl)cc1Cl?
A: GI50 [10]: 29.9 µM; TGI [10]: > 100 µM; GI50 [1]: 38.8 µM; TGI [1]: > 100 µM; GI50 [2]: 17.1 µM; TGI [2]: 35.9 µM; GI50 [4]: 23300 nM; TGI [4]: 77.5 µM; GI50 [5]: 27.5 µM; TGI [5]: > 100 µM; GI50 [6]: 50700 nM; TGI [6]: > 100 µM; GI50 [8]: 14.7 µM; TGI [8]: 32.2 µM; GI50 [9]: 28 µM; TGI [9]: 64.2 µM

Q: With COc1ccc(C(=O)c2cc(OC)c(OC)c(OC)c2)cc1/C=C/C(=O)c1ccc2c(c1)OCO2 as the compound, how does the GI50 [2] read?
A: 3.07 µM

Q: And the TGI [2]?
A: > 100 µM

Q: What about the GI50 [3] of the same compound?
A: 4.56 µM

Q: What about the TGI [3] of the same compound?
A: > 100 µM

Q: And the GI50 [4]?
A: 2350 nM

Q: And the TGI [4]?
A: 54.3 µM

Q: What about the GI50 [5] of the same compound?
A: 3.09 µM

Q: What about the TGI [5] of the same compound?
A: > 100 µM

Q: And the GI50 [7]?
A: 3.55 µM

Q: And the TGI [7]?
A: > 100 µM

Q: And the GI50 [9]?
A: 2.32 µM

Q: And the TGI [9]?
A: 13.1 µM

Q: Which TGI [10] does the source give for N#CC(C#N)=Cc1ccc(Oc2ccccc2)cc1 here?
A: > 100 µM

Q: And the TGI [1]?
A: > 100 µM

Q: What about the TGI [2] of the same compound?
A: 20.6 µM

Q: What about the TGI [5] of the same compound?
A: > 100 µM

Q: What about the TGI [6] of the same compound?
A: > 71.4 µM

Q: What about the TGI [7] of the same compound?
A: > 71.3 µM

Q: What about the TGI [8] of the same compound?
A: 64.7 µM

Q: What about the TGI [9] of the same compound?
A: 73.7 µM

Q: Which GI50 [10] does the source give for CC(=O)OC1CC(C)c2c(Cl)ncnc21 (stereo unspecified) here?
A: > 100 µM

Q: What about the TGI [10] of the same compound?
A: > 100 µM

Q: What about the GI50 [1] of the same compound?
A: > 100 µM

Q: What about the TGI [1] of the same compound?
A: > 100 µM

Q: What about the GI50 [2] of the same compound?
A: > 100 µM

Q: And the TGI [2]?
A: > 100 µM

Q: What about the GI50 [3] of the same compound?
A: > 100 µM

Q: And the TGI [3]?
A: > 100 µM

Q: What about the GI50 [4] of the same compound?
A: > 100000 nM

Q: And the TGI [4]?
A: > 100 µM

Q: And the GI50 [5]?
A: > 100 µM

Q: What about the TGI [5] of the same compound?
A: > 100 µM

Q: And the GI50 [6]?
A: > 100000 nM

Q: And the TGI [6]?
A: > 100 µM

Q: What about the GI50 [8] of the same compound?
A: > 100 µM

Q: What about the TGI [8] of the same compound?
A: > 100 µM

Q: What about the GI50 [9] of the same compound?
A: > 100 µM

Q: And the TGI [9]?
A: > 100 µM

Q: COc1ccc(OC)c(-c2cc(C(=O)O)c3cc4ccccc4cc3n2)c1 was tested. Which TGI [10] did it give?
A: > 100 µM

Q: And the TGI [1]?
A: > 100 µM

Q: What about the TGI [2] of the same compound?
A: > 100 µM

Q: What about the TGI [3] of the same compound?
A: > 100 µM

Q: And the TGI [4]?
A: > 100 µM

Q: What about the TGI [5] of the same compound?
A: > 100 µM

Q: What about the TGI [7] of the same compound?
A: > 100 µM

Q: And the TGI [8]?
A: > 100 µM

Q: And the TGI [9]?
A: > 100 µM

Q: Which TGI [10] does the source give for CNC(=O)OCc1cc2ccncc2c2c1[nH]c1ccccc12 here?
A: > 100 µM

Q: What about the TGI [1] of the same compound?
A: > 100 µM

Q: And the TGI [2]?
A: > 100 µM

Q: And the TGI [5]?
A: > 100 µM

Q: And the TGI [6]?
A: > 100 µM

Q: What about the TGI [7] of the same compound?
A: > 100 µM

Q: What about the TGI [8] of the same compound?
A: > 100 µM

Q: And the TGI [9]?
A: > 100 µM
